Tested on: 873145-292-R-J1-PDC complex spheroid viability
Assay: Anticancer human tumor 873145-292-R-J1-PDC patient-derived renal clear cell carcinoma cell line growth inhibition [POLQ]
Details: for IC50: curve of first compound; for viability, T/C: stronger effect = lower value
Procedure, shortened: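 Patient-derived tumour cells were co-cultured with HUVEC and mesenchymal stem cells as multicellular spheroids at 37 °C. They were treated with POLQ inhibitors (novobiocin, ART-558, RP6685) alone or combined with other agents. Top concentrations were at or near clinical Cmax (otherwise 10 microM; SN-38 at 1 microM), decreasing in half-log steps.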

[1] = second compound 0.0316 µM, first compound 0.0316 µM
[2] = second compound 0.0316 µM, first compound 0.1 µM
[3] = second compound 0.0316 µM, first compound 0.316 µM
[4] = second compound 0.0316 µM, first compound 1 µM
[5] = second compound 0.0316 µM, first compound 3.16 µM
[6] = second compound 0.0316 µM, first compound 10 µM
[7] = second compound 0.1 µM, first compound 0.0316 µM
[8] = second compound 0.1 µM, first compound 0.1 µM
[9] = second compound 0.1 µM, first compound 0.316 µM
[10] = second compound 0.1 µM, first compound 1 µM
[11] = second compound 0.1 µM, first compound 3.16 µM
[12] = second compound 0.1 µM, first compound 10 µM
[13] = second compound 0.316 µM, first compound 0.0316 µM
[14] = second compound 0.316 µM, first compound 0.1 µM
[15] = second compound 0.316 µM, first compound 0.316 µM
[16] = second compound 0.316 µM, first compound 1 µM
[17] = second compound 0.316 µM, first compound 3.16 µM
[18] = second compound 0.316 µM, first compound 10 µM
[19] = second compound 1 µM, first compound 0.0316 µM
[20] = second compound 1 µM, first compound 0.1 µM
[21] = second compound 1 µM, first compound 0.316 µM
[22] = second compound 1 µM, first compound 1 µM
[23] = second compound 1 µM, first compound 3.16 µM
[24] = second compound 1 µM, first compound 10 µM
[25] = second compound 3.16 µM, first compound 0.0316 µM
[26] = second compound 3.16 µM, first compound 0.1 µM
[27] = second compound 3.16 µM, first compound 0.316 µM
[28] = second compound 3.16 µM, first compound 1 µM
[29] = second compound 3.16 µM, first compound 3.16 µM
[30] = second compound 3.16 µM, first compound 10 µM
[31] = second compound 10 µM, first compound 0.0316 µM
[32] = second compound 10 µM, first compound 0.1 µM
[33] = second compound 10 µM, first compound 0.316 µM
[34] = second compound 10 µM, first compound 1 µM
[35] = second compound 10 µM, first compound 3.16 µM
[36] = second compound 10 µM, first compound 10 µM
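Note: spheroids exposed to compounds for 7 days before viability readout.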
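Throughout, for viability, T/C: luminescence signal used as surrogate for viable cell content; 100% = DMSO vehicle control viability.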

## CCc1cc2c(N3CCc4c(cc(Cn5ccnc5)cc4-c4cn(C)nc4C(F)(F)F)C3=O)ccnc2c(OC)n1 + COC1C(OC(N)=O)C(O)C(Oc2ccc3c(O)c(NC(=O)c4ccc(O)c(CC=C(C)C)c4)c(=O)oc3c2C)OC1(C)C
Second compound 0.0316 µM
  IC50: > 10 µM
Second compound 0.1 µM
  IC50: > 10 µM
Second compound 0.316 µM
  IC50: > 10 µM
Second compound 1 µM
  IC50: > 10 µM
Second compound 3.16 µM
  IC50: > 10 µM
Second compound 10 µM
  IC50: > 10 µM
[1]
  viability, T/C: 97.1%
[2]
  viability, T/C: 96.5%
[3]
  viability, T/C: 98.2%
[4]
  viability, T/C: 97.9%
[5]
  viability, T/C: 86.8%
[6]
  viability, T/C: 79.6%
[7]
  viability, T/C: 106%
[8]
  viability, T/C: 101%
[9]
  viability, T/C: 87.7%
[10]
  viability, T/C: 81.5%
[11]
  viability, T/C: 82%
[12]
  viability, T/C: 85%
[13]
  viability, T/C: 107%
[14]
  viability, T/C: 90.1%
[15]
  viability, T/C: 86.4%
[16]
  viability, T/C: 98.7%
[17]
  viability, T/C: 96.6%
[18]
  viability, T/C: 83.2%
[19]
  viability, T/C: 94.1%
[20]
  viability, T/C: 92.4%
[21]
  viability, T/C: 86.7%
[22]
  viability, T/C: 104%
[23]
  viability, T/C: 84.3%
[24]
  viability, T/C: 74.4%
[25]
  viability, T/C: 103%
[26]
  viability, T/C: 98.7%
[27]
  viability, T/C: 96.5%
[28]
  viability, T/C: 91.8%
[29]
  viability, T/C: 82.4%
[30]
  viability, T/C: 91.4%
[31]
  viability, T/C: 88.4%
[32]
  viability, T/C: 97.5%
[33]
  viability, T/C: 87%
[34]
  viability, T/C: 86.2%
[35]
  viability, T/C: 85.1%
[36]
  viability, T/C: 78.2%

## COc1cc2cc(C(=O)CCC(=O)O)sc2cc1OC + COC1C(OC(N)=O)C(O)C(Oc2ccc3c(O)c(NC(=O)c4ccc(O)c(CC=C(C)C)c4)c(=O)oc3c2C)OC1(C)C
Second compound 0.0316 µM
  IC50: > 10 µM
Second compound 0.1 µM
  IC50: > 10 µM
Second compound 0.316 µM
  IC50: > 10 µM
Second compound 1 µM
  IC50: > 10 µM
Second compound 3.16 µM
  IC50: > 10 µM
Second compound 10 µM
  IC50: > 10 µM
[1]
  viability, T/C: 106%
[2]
  viability, T/C: 93.8%
[3]
  viability, T/C: 106%
[4]
  viability, T/C: 101%
[5]
  viability, T/C: 91.8%
[6]
  viability, T/C: 94.3%
[7]
  viability, T/C: 105%
[8]
  viability, T/C: 97.7%
[9]
  viability, T/C: 94.7%
[10]
  viability, T/C: 91.7%
[11]
  viability, T/C: 108%
[12]
  viability, T/C: 102%
[13]
  viability, T/C: 107%
[14]
  viability, T/C: 93.8%
[15]
  viability, T/C: 94.7%
[16]
  viability, T/C: 89.8%
[17]
  viability, T/C: 97.6%
[18]
  viability, T/C: 94.2%
[19]
  viability, T/C: 108%
[20]
  viability, T/C: 87.4%
[21]
  viability, T/C: 109%
[22]
  viability, T/C: 100%
[23]
  viability, T/C: 102%
[24]
  viability, T/C: 92.1%
[25]
  viability, T/C: 103%
[26]
  viability, T/C: 104%
[27]
  viability, T/C: 89%
[28]
  viability, T/C: 95.1%
[29]
  viability, T/C: 100%
[30]
  viability, T/C: 98.1%
[31]
  viability, T/C: 93.4%
[32]
  viability, T/C: 88.2%
[33]
  viability, T/C: 94.5%
[34]
  viability, T/C: 97.6%
[35]
  viability, T/C: 99.2%
[36]
  viability, T/C: 96.7%

## COc1ccc([C@@H](O)c2cc(-c3ncnc4cc(N5CCOCC5)ccc34)c(F)cc2Cl)nn1 + COC1C(OC(N)=O)C(O)C(Oc2ccc3c(O)c(NC(=O)c4ccc(O)c(CC=C(C)C)c4)c(=O)oc3c2C)OC1(C)C
Second compound 0.0316 µM
  IC50: 4.41 µM
Second compound 0.1 µM
  IC50: 4.1 µM
Second compound 0.316 µM
  IC50: 3.22 µM
Second compound 1 µM
  IC50: 3.96 µM
Second compound 3.16 µM
  IC50: 6.14 µM
Second compound 10 µM
  IC50: 5.25 µM
[1]
  viability, T/C: 92%
[2]
  viability, T/C: 97.4%
[3]
  viability, T/C: 81.2%
[4]
  viability, T/C: 69.8%
[5]
  viability, T/C: 50.3%
[6]
  viability, T/C: 46.1%
[7]
  viability, T/C: 94.3%
[8]
  viability, T/C: 87.9%
[9]
  viability, T/C: 83.1%
[10]
  viability, T/C: 71.3%
[11]
  viability, T/C: 51.7%
[12]
  viability, T/C: 40.3%
[13]
  viability, T/C: 108%
[14]
  viability, T/C: 93%
[15]
  viability, T/C: 76.1%
[16]
  viability, T/C: 64.9%
[17]
  viability, T/C: 51.3%
[18]
  viability, T/C: 36.6%
[19]
  viability, T/C: 92.4%
[20]
  viability, T/C: 85.5%
[21]
  viability, T/C: 83.5%
[22]
  viability, T/C: 68.1%
[23]
  viability, T/C: 52.5%
[24]
  viability, T/C: 40.1%
[25]
  viability, T/C: 89.1%
[26]
  viability, T/C: 92.4%
[27]
  viability, T/C: 85.7%
[28]
  viability, T/C: 65.1%
[29]
  viability, T/C: 62.9%
[30]
  viability, T/C: 42.7%
[31]
  viability, T/C: 99.1%
[32]
  viability, T/C: 90%
[33]
  viability, T/C: 88.7%
[34]
  viability, T/C: 70.4%
[35]
  viability, T/C: 58.9%
[36]
  viability, T/C: 39.9%
